Measurements as given in US9028845B2, “Chimeric immunomodulatory compounds and methods of using the same-IV” (Dynavax Technologies Corporation, priority 2001, dated 2015).

Test system: human PBMCs
Experiment: Human PBMC cytokine response assay (IFN-γ and IFN-α in cell-free medium by ELISA), with or without cPLGA;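 on IFN-α (pg/ml) mean: 20 µg/mL compound for 24 hours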;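 on IFN-γ (pg/ml) mean: 20 µg/mL compound for 24 hours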
Format: cell-based
Conditions: for immunomodulatory activity (IFN-γ / IFN-α secretion), in words: used alone (no cPLGA)
[1] = Example 59, 0.8 ug/ml, donor 48
[2] = Example 59, 0.8 ug/ml, donor 177
[3] = Example 59, 0.8 ug/ml, donor 272
[4] = Example 59, 0.8 ug/ml, donor 273
[5] = Example 59, 0.8 ug/ml, mean of four donors
[6] = Example 59, 4 ug/ml, mean of four donors
[7] = Example 59, 20 ug/ml, donor 177
[8] = Example 59, 20 ug/ml, donor 272
[9] = Example 59, 20 ug/ml, donor 273
[10] = Example 59, 20 ug/ml, mean of four donors
[11] = mean of donors 110, 112, 119, 120, Table 14
[12] = mean of Donors 3-4, 20 μg/ml, 24 h
[13] = mean of donors 28057-28060, Table 16

(5′-TCGACGT-HEG)2-glycerol-HEG-5′-TTGGCCAAGCTTGGCCAA (SEQ ID NO: 116) (DNA, all phosphorothioate, methylation of C not given here; Two heptamer DNA arms joined by HEG spacers and glycerol branching to the chain) [Compound C-178]
IFN-α [1]: 336 pg/mL | IFN-α [2]: 1150 pg/mL | IFN-α [3]: 149 pg/mL | IFN-α [4]: 102 pg/mL | IFN-α mean [5]: 434 pg/mL | IFN-α (Example 59, 4 ug/ml, donor 48): 16300 pg/mL | IFN-α (Example 59, 4 ug/ml, donor 177): 8304 pg/mL | IFN-α (Example 59, 4 ug/ml, donor 272): 1677 pg/mL | IFN-α (Example 59, 4 ug/ml, donor 273): 1732 pg/mL | IFN-α mean [6]: 7003 pg/mL | IFN-α (Example 59, 20 ug/ml, donor 48): 13946 pg/mL | IFN-α [7]: 19973 pg/mL | IFN-α [8]: 15050 pg/mL | IFN-α [9]: 3971 pg/mL | IFN-α mean [10]: 13235 pg/mL

5′-TCGTCGA-3′-HEG-5′-TCGTCGA-3′ [Compound C-39]
IFN-α (Table 10, donor 28042): 31 pg/mL | IFN-γ (Table 10, donor 28042): 343 pg/mL | IFN-α (Table 10, donor 28043): 187 pg/mL | IFN-γ (Table 10, donor 28043): 488 pg/mL | IFN-α (Table 10, donor 28044): 46 pg/mL | IFN-γ (Table 10, donor 28044): 281 pg/mL | IFN-α (Table 10, donor 28045): 36 pg/mL | IFN-γ (Table 10, donor 28045): 137 pg/mL | IFN-α mean (Table 10, mean of donors): 75 pg/mL | IFN-γ mean (Table 10, mean of donors): 312 pg/mL | IFN-α (donor 110, Table 14): 674 pg/mL | IFN-γ (donor 110, Table 14): 604 pg/mL | IFN-α (donor 112, Table 14): 26 pg/mL | IFN-γ (donor 112, Table 14): 116 pg/mL | IFN-α (donor 119, Table 14): 444 pg/mL | IFN-γ (donor 119, Table 14): 108 pg/mL | IFN-α (donor 120, Table 14): 250 pg/mL | IFN-γ (donor 120, Table 14): 32 pg/mL | activity when formulated with cPLGA, in words: significant activity when formulated with cPLGA | IFN-α (pg/ml) mean [11]: 349 pg/mL | IFN-γ (pg/ml) mean [11]: 215 pg/mL | immunomodulatory activity (IFN-γ / IFN-α secretion), in words: active when used alone

5′-ATCTCGA-3′ [Compound P-5, reference compound]
IFN-α (pg/ml) Donor 3 (Donor 3, 20 μg/ml, 24 h): 0 pg/mL | IFN-γ (pg/ml) Donor 3 (Donor 3, 20 μg/ml, 24 h): 0 pg/mL | IFN-α (pg/ml) Donor 4 (Donor 4, 20 μg/ml, 24 h): 57 pg/mL | IFN-γ (pg/ml) Donor 4 (Donor 4, 20 μg/ml, 24 h): 3 pg/mL | IFN-α (pg/ml) mean [12]: 29 pg/mL | IFN-γ (pg/ml) mean [12]: 2 pg/mL | immunomodulatory activity (IFN-γ / IFN-α secretion), in words: did not have immunomodulatory activity

(5′-TCGAACGTTCGA-3′ (SEQ ID NO: 155)-HEG)2-glycerol-HEG-5′-TCGAACGTTCGA-3′ (SEQ ID NO: 155) (three copies via HEG-glycerol branching, chemistry not fully specified) [Compound C-173]
IFN-α (Example 58, 0.8 ug/ml, donor 1): 272 pg/mL | IFN-α (Example 58, 0.8 ug/ml, donor 2): 1293 pg/mL | IFN-α (Example 58, 0.8 ug/ml, donor 3): 1138 pg/mL | IFN-α (Example 58, 0.8 ug/ml, donor 4): 2547 pg/mL | IFN-α mean (Example 58, 0.8 ug/ml, mean of four individuals): 1312 pg/mL | IFN-α (Example 58, 4 ug/ml, donor 1): 3828 pg/mL | IFN-α (Example 58, 4 ug/ml, donor 2): 2917 pg/mL | IFN-α (Example 58, 4 ug/ml, donor 3): 2197 pg/mL | IFN-α (Example 58, 4 ug/ml, donor 4): 3563 pg/mL | IFN-α mean (Example 58, 4 ug/ml, mean of four individuals): 3126 pg/mL | IFN-α (Example 58, 20 ug/ml, donor 1): 14381 pg/mL | IFN-α (Example 58, 20 ug/ml, donor 2): 8060 pg/mL | IFN-α (Example 58, 20 ug/ml, donor 3): 66 pg/mL | IFN-α (Example 58, 20 ug/ml, donor 4): 299 pg/mL | IFN-α mean (Example 58, 20 ug/ml, mean of four individuals): 5701 pg/mL | IFN-α from human PBMC compared with parent oligonucleotide P-17, in words (low doses (e.g., 0.8 ug/ml), four individuals): induce significantly more IFN-α

5′-CGTTCGA-3′-HEG-5′-CGTTCGA-3′-HEG-5′-CGTTCGA-3′ [Compound C-52]
IFN-α (Table 10, donor 28042): 0 pg/mL | IFN-γ (Table 10, donor 28042): 238 pg/mL | IFN-α (Table 10, donor 28043): 3 pg/mL | IFN-γ (Table 10, donor 28043): 214 pg/mL | IFN-α (Table 10, donor 28044): 35 pg/mL | IFN-γ (Table 10, donor 28044): 212 pg/mL | IFN-α (Table 10, donor 28045): 48 pg/mL | IFN-γ (Table 10, donor 28045): 28 pg/mL | IFN-α mean (Table 10, mean of donors): 22 pg/mL | IFN-γ mean (Table 10, mean of donors): 173 pg/mL | IFN-α (donor 110, Table 14): 2 pg/mL | IFN-γ (donor 110, Table 14): 472 pg/mL | IFN-α (donor 112, Table 14): 2 pg/mL | IFN-γ (donor 112, Table 14): 48 pg/mL | IFN-α (donor 119, Table 14): 292 pg/mL | IFN-γ (donor 119, Table 14): 40 pg/mL | IFN-α (donor 120, Table 14): 2 pg/mL | IFN-γ (donor 120, Table 14): 28 pg/mL | IFN-α (pg/ml) mean [11]: 75 pg/mL | IFN-γ (pg/ml) mean [11]: 147 pg/mL

5′-TTCGTTT-3′-HEG-5′-TTCGTTT-3′-HEG-5′-TTCGTTT-3′ [Compound C-46]
IFN-α (Table 10, donor 28042): 24 pg/mL | IFN-γ (Table 10, donor 28042): 399 pg/mL | IFN-α (Table 10, donor 28043): 73 pg/mL | IFN-γ (Table 10, donor 28043): 814 pg/mL | IFN-α (Table 10, donor 28044): 26 pg/mL | IFN-γ (Table 10, donor 28044): 480 pg/mL | IFN-α (Table 10, donor 28045): 3 pg/mL | IFN-γ (Table 10, donor 28045): 63 pg/mL | IFN-α mean (Table 10, mean of donors): 31 pg/mL | IFN-γ mean (Table 10, mean of donors): 439 pg/mL | IFN-α (donor 110, Table 14): 58 pg/mL | IFN-γ (donor 110, Table 14): 1224 pg/mL | IFN-α (donor 112, Table 14): 2 pg/mL | IFN-γ (donor 112, Table 14): 400 pg/mL | IFN-α (donor 119, Table 14): 208 pg/mL | IFN-γ (donor 119, Table 14): 68 pg/mL | IFN-α (donor 120, Table 14): 48 pg/mL | IFN-γ (donor 120, Table 14): 36 pg/mL | IFN-α (pg/ml) mean [11]: 79 pg/mL | IFN-γ (pg/ml) mean [11]: 432 pg/mL | immunomodulatory activity (IFN-γ / IFN-α secretion), in words: more active than other CG-containing CICs

(5′-TCGACGT-HEG)2-glycerol-HEG-5′-CCTACTGAACCTCTAAGT-3′ (SEQ ID NO: 158) (DNA, all phosphorothioate, methylation of C not given here; Two heptamer DNA arms joined by HEG spacers and glycerol branching to the chain) [Compound C-203]
IFN-α [1]: 102 pg/mL | IFN-α [2]: 102 pg/mL | IFN-α [3]: 102 pg/mL | IFN-α [4]: 102 pg/mL | IFN-α mean [5]: 102 pg/mL | IFN-α (Example 59, 4 ug/ml, donor 48): 691 pg/mL | IFN-α (Example 59, 4 ug/ml, donor 177): 487 pg/mL | IFN-α (Example 59, 4 ug/ml, donor 272): 102 pg/mL | IFN-α (Example 59, 4 ug/ml, donor 273): 102 pg/mL | IFN-α mean [6]: 346 pg/mL | IFN-α (Example 59, 20 ug/ml, donor 48): 735 pg/mL | IFN-α [7]: 681 pg/mL | IFN-α [8]: 102 pg/mL | IFN-α [9]: 102 pg/mL | IFN-α mean [10]: 405 pg/mL

5′-TCGTCG-3′-(HEG)4-5′-T-3′ [Compound C-16]
IFN-α (donor 28057, Table 16): 0 pg/mL | IFN-γ (donor 28057, Table 16): 1 pg/mL | IFN-α (donor 28058, Table 16): 0 pg/mL | IFN-γ (donor 28058, Table 16): 2 pg/mL | IFN-α (donor 28059, Table 16): 0 pg/mL | IFN-γ (donor 28059, Table 16): 0 pg/mL | IFN-α (donor 28060, Table 16): 0 pg/mL | IFN-γ (donor 28060, Table 16): 6 pg/mL | activity when formulated with cPLGA, in words: all had significant activity when formulated on cPLGA | IFN-α (pg/ml) mean [13]: 0 pg/mL | IFN-γ (pg/ml) mean [13]: 2 pg/mL | immunomodulatory activity (IFN-γ / IFN-α secretion), in words: None of the CICs was active when used alone

5′-TCGTCGA-3′-HEG-5′-AGATGAT-3′-HEG-5′-ACGTTCG-3′ [Compound C-56]
IFN-α (Table 13, donor 28156): 98 pg/mL | IFN-γ (Table 13, donor 28156): 1223 pg/mL | IFN-α (Table 13, donor 28157): 415 pg/mL | IFN-γ (Table 13, donor 28157): 543 pg/mL | IFN-α (Table 13, donor 28158): 57 pg/mL | IFN-γ (Table 13, donor 28158): 203 pg/mL | IFN-α (Table 13, donor 28159): 131 pg/mL | IFN-γ (Table 13, donor 28159): 563 pg/mL | IFN-α mean (Table 13, mean of donors): 175 pg/mL | IFN-γ mean (Table 13, mean of donors): 633 pg/mL | immunomodulatory activity (IFN-γ / IFN-α secretion), in words: most active CICs
